Results from US10947188B2, “Small molecule ferroptosis inducers” (THE TRUSTEES OF COLUMBIA UNIVERSITY IN THE CITY OF NEW YORK, priority 2016, dated 2021).

Columns and labels:
BJeLR = experiment: Modulatory profiling: Alamar Blue viability, lethal compound cotreated with death modulator (EC50, AUC); type: cell-based, human; design: AUC, modulator BJ.Gd3+ / AUC, modulator BJ.LNAME / AUC, modulator BJ.Lmin / AUC, modulator BJ.3MA / AUC, modulator BJ.ALLN / AUC, modulator BJ.Boc D / AUC, modulator BJ.CHX / AUC, modulator BJ.Co2+ / AUC, modulator BJ.Nec-1 / AUC, modulator BJ.Pepstatin / AUC, modulator BJ.TLCK / AUC, modulator BJ.atoc / AUC, modulator BJ.trolox / AUC, modulator BJ.zVAD: unit not given beside the values; settings: BJeLR cells, modulatory profile value (AUC); for AUC, modulator BJ.3MA: lethal compound cotreated with modulator 3MA; for AUC, modulator BJ.ALLN: lethal compound cotreated with modulator ALLN; for AUC, modulator BJ.Boc D: lethal compound cotreated with modulator Boc D; for AUC, modulator BJ.CHX: lethal compound cotreated with modulator CHX; for AUC, modulator BJ.Co2+: lethal compound cotreated with modulator Co2+; for AUC, modulator BJ.DPQ: lethal compound cotreated with modulator DPQ; for AUC, modulator BJ.Gd3+: lethal compound cotreated with modulator Gd3+; for AUC, modulator BJ.LNAME: lethal compound cotreated with modulator LNAME; for AUC, modulator BJ.Lmin/NAD+: lethal compound cotreated with modulator Lmin/NAD+; for AUC, modulator BJ.Lmin: lethal compound cotreated with modulator Lmin; for AUC, modulator BJ.NAD+: lethal compound cotreated with modulator NAD+; for AUC, modulator BJ.NMMA: lethal compound cotreated with modulator NMMA; for AUC, modulator BJ.Nec-1: lethal compound cotreated with modulator Nec-1; for AUC, modulator BJ.Pepstatin: lethal compound cotreated with modulator Pepstatin; for AUC, modulator BJ.TLCK: lethal compound cotreated with modulator TLCK; for AUC, modulator BJ.3MA: reference of the scale not given here; for AUC, modulator BJ.ALLN: reference of the scale not given here; for AUC, modulator BJ.Boc D: reference of the scale not given here; for AUC, modulator BJ.CHX: reference of the scale not given here; for AUC, modulator BJ.Co2+: reference of the scale not given here; for AUC, modulator BJ.DPQ: reference of the scale not given here; for AUC, modulator BJ.Gd3+: reference of the scale not given here; for AUC, modulator BJ.LNAME: reference of the scale not given here; for AUC, modulator BJ.NAD+: reference of the scale not given here; for AUC, modulator BJ.NMMA: reference of the scale not given here; for AUC, modulator BJ.Nec-1: reference of the scale not given here; for AUC, modulator BJ.Pepstatin: reference of the scale not given here; for AUC, modulator BJ.TLCK: reference of the scale not given here
HT-1080 = experiment: as above; type: cell-based; design: AUC, modulator HT.3MA / AUC, modulator HT.ALLN / AUC HT.ATA / AUC HT.ActD / AUC HT.BHA / AUC HT.BHT / AUC HT.BocD / AUC HT.CHX / AUC HT.Co2+ / AUC HT.DPQ / AUC HT.EGTA / AUC HT.Lmim / AUC HT.NAD+ / AUC HT.Nec-1 / AUC HT.SP600125 / AUC HT.TLCK / AUC HT.U0126: unit not given beside the values; settings: for AUC HT.ATA: HT-1080, modulator ATA; for AUC HT.ActD: HT-1080, modulator ActD; for AUC HT.BHA: HT-1080, modulator BHA; for AUC HT.BHT: HT-1080, modulator BHT; for AUC HT.BocD: HT-1080, modulator BocD; for AUC HT.CHX: HT-1080, modulator CHX; for AUC HT.Co2+: HT-1080, modulator Co2+; for AUC HT.CspA: HT-1080, modulator CspA; for AUC HT.DPQ: HT-1080, modulator DPQ; for AUC HT.EGTA: HT-1080, modulator EGTA; for AUC HT.Gd3+: HT-1080, modulator Gd3+; for AUC HT.LNAME: HT-1080, modulator LNAME; for AUC HT.Lmim: HT-1080, modulator Lmim; for AUC HT.NAD+: HT-1080, modulator NAD+; for AUC HT.NMMA: HT-1080, modulator NMMA; for HT.atoc (AUC) / HT.bCarotene (AUC) / HT.deferox (AUC) / HT.digoxin (AUC) / HT.trolox (AUC) / HT.zVAD (AUC): HT-1080; for HT.atoc (AUC): modulator atoc; for HT.bCarotene (AUC): modulator bCarotene; for HT.deferox (AUC): modulator deferox; for HT.digoxin (AUC): modulator digoxin; for HT.trolox (AUC): modulator trolox; for HT.zVAD (AUC): modulator zVAD; for AUC HT.BHA: reference of the scale not given here; for AUC HT.EGTA: reference of the scale not given here

COc1ccc(Nc2ccc3c(c2)=NC2(CCCCC2)[N+]=3[O-])cc1 [CIL9]
AUC, modulator BJ.3MA (BJeLR): 0.0465
AUC, modulator BJ.ALLN (BJeLR): −0.1202
AUC, modulator BJ.Boc D (BJeLR): −0.06171
AUC, modulator BJ.CHX (BJeLR): 0.03696
AUC, modulator BJ.Co2+ (BJeLR): −0.009162
AUC, modulator BJ.DPQ (BJeLR): −0.01225
AUC, modulator BJ.Gd3+ (BJeLR): −0.01038
AUC, modulator BJ.LNAME (BJeLR): 0.01336
AUC, modulator BJ.Lmin/NAD+ (BJeLR): 0.01499
AUC, modulator BJ.Lmin (BJeLR): −0.03967
AUC, modulator BJ.NAD+ (BJeLR): 0.0007181
AUC, modulator BJ.NMMA (BJeLR): −0.01541
AUC, modulator BJ.Nec-1 (BJeLR): 0.02689
AUC, modulator BJ.Pepstatin (BJeLR): 0.0182
AUC, modulator BJ.TLCK (BJeLR): −0.01752
AUC, modulator BJ.atoc (BJeLR; lethal compound cotreated with modulator atoc): 0.02754
AUC, modulator BJ.trolox (BJeLR; lethal compound cotreated with modulator trolox): 0.05397
AUC, modulator BJ.zVAD (BJeLR; lethal compound cotreated with modulator zVAD): −0.02708
AUC HT.ATA (HT-1080): −0.003144
AUC HT.ActD (HT-1080): −0.064
AUC HT.BHA (HT-1080): −0.04477
AUC HT.BHT (HT-1080): −0.1803
AUC HT.BocD (HT-1080): −0.02376
AUC HT.CHX (HT-1080): 0.07227
AUC HT.Co2+ (HT-1080): 0.01754
AUC HT.CspA (HT-1080): −0.03079
AUC HT.DPQ (HT-1080): −0.003317
AUC HT.EGTA (HT-1080): −0.006848
AUC HT.Gd3+ (HT-1080): −0.04358
AUC HT.LNAME (HT-1080): 0.02124
AUC HT.Lmim (HT-1080): −0.05469
AUC HT.NAD+ (HT-1080): 0.02617
AUC HT.NMMA (HT-1080): −0.03733
AUC HT.Nec-1 (HT-1080; HT-1080, modulator Nec-1): 0.02133
AUC HT.Pepstatin (HT-1080; HT-1080, modulator Pepstatin): −0.002188
AUC HT.SP600125 (HT-1080; HT-1080, modulator SP600125): 0.01016
AUC HT.TLCK (HT-1080; HT-1080, modulator TLCK): 0.005514
AUC HT.U0126 (HT-1080; HT-1080, modulator U0126): 0.03915
HT.atoc (AUC) (HT-1080): 0.05157
HT.bCarotene (AUC) (HT-1080): −0.006502
HT.deferox (AUC) (HT-1080): 0.05678
HT.digoxin (AUC) (HT-1080): −0.01984
HT.trolox (AUC) (HT-1080): −0.03599
HT.zVAD (AUC) (HT-1080): −0.00166
AUC, modulator HT.3MA (HT-1080; HT-1080 cells, lethal compound cotreated with modulator 3MA, modulatory profile value (AUC)): 0.04492
AUC, modulator HT.ALLN (HT-1080; HT-1080 cells, lethal compound cotreated with modulator ALLN, modulatory profile value (AUC)): −0.02077

O=C(Oc1ccc(Cl)c2cccnc12)c1ccco1 [CIL58]
AUC, modulator BJ.3MA (BJeLR): 0.03403
AUC, modulator BJ.ALLN (BJeLR): 0.01846
AUC, modulator BJ.Boc D (BJeLR): −0.007995
AUC, modulator BJ.CHX (BJeLR): −0.04911
AUC, modulator BJ.Co2+ (BJeLR): 0.2386
AUC, modulator BJ.DPQ (BJeLR): 0.009922
AUC, modulator BJ.Gd3+ (BJeLR): 0.02131
AUC, modulator BJ.LNAME (BJeLR): −0.02811
AUC, modulator BJ.Lmin/NAD+ (BJeLR): 0.02713
AUC, modulator BJ.Lmin (BJeLR): −0.009172
AUC, modulator BJ.NAD+ (BJeLR): 0.02238
AUC, modulator BJ.NMMA (BJeLR): −0.05299
AUC, modulator BJ.Nec-1 (BJeLR): 0.0983
AUC, modulator BJ.Pepstatin (BJeLR): 0.07532
AUC, modulator BJ.TLCK (BJeLR): 0.1505
AUC HT.ATA (HT-1080): 0.05141
AUC HT.ActD (HT-1080): 0.02044
AUC HT.BHA (HT-1080): −0.03989
AUC HT.BHT (HT-1080): −0.1355
AUC HT.BocD (HT-1080): −0.02082
AUC HT.CHX (HT-1080): −0.05674
AUC HT.Co2+ (HT-1080): 0.09509
AUC HT.CspA (HT-1080): 0.06761
AUC HT.DPQ (HT-1080): −0.005922
AUC HT.EGTA (HT-1080): 0.05184
AUC HT.Gd3+ (HT-1080): −0.004674
AUC HT.LNAME (HT-1080): −0.09982
AUC HT.Lmim (HT-1080): −0.07257
AUC HT.NAD+ (HT-1080): −0.06539
AUC HT.NMMA (HT-1080): −0.09083
HT.atoc (AUC) (HT-1080): 0.03305
HT.bCarotene (AUC) (HT-1080): 0.08558
HT.deferox (AUC) (HT-1080): 0.08912
HT.digoxin (AUC) (HT-1080): 0.0229
HT.trolox (AUC) (HT-1080): −0.04791
HT.zVAD (AUC) (HT-1080): 0.02459
